Here are results for two compounds from US10583084B2, “Liposomal formulations for delivery of nucleic acids” (RAMOT AT TEL-AVIV UNIVERSITY LTD., priority 2014, dated 2020).

Series [1] in a line: lipid pKa of cationic lipids.

Regarding `CCCCC/C=C\C/C=C\CCCCCCCCC1(CCCCCCCC/C=C\C/C=C\CCCCC)OCC(CCN(C)C)O1` (centres unmarked) [DLin-KC2-DMA, 2,2-Dilinoleyl-4-(2-dimethylaminoethyl)-[1,3]-dioxolane], the pKa – broadly, the pH at which an ionisable group is half protonated – in the series “physchem” was around 6.7.
As for `CCCCC/C=C\C/C=C\CCCCCCCCOCC(CN(C)C)OCCCCCCCC/C=C\C/C=C\CCCCC` (centres unmarked) [DLinDMA], the “lipid pKa” value in series [1] worked out at 6.8.
